{"source": "paper PMC11433825", "about": "“Bidentate Substrate Binding Mode in Oxalate Decarboxylase” (Molecules, 2024)", "key": {"[1]": {"target": "T1, Oxalate decarboxylase (OxDC) (Bacillus subtilis, UniProt O34714)", "T1 construct": "recombinant, C-terminal His6 tag kept, IPTG/heat-shock expression with MnCl2, Ni-NTA purified; Mn(II) in two cupin sites per subunit", "assay": "X-band […] Mims ENDOR", "assay_type": "binding", "details": "labelled compound (13C), 50 mM; Tris pH 8.5, 50% glycerol, 10 mM ascorbate, 5 uM DTPA; 5 K; bidentate to N-terminal active-site Mn(II)"}, "[2]": {"target": "T2, Oxalate decarboxylase (OxDC) (Bacillus subtilis, UniProt O34714, W96F)", "T2 construct": "recombinant, C-terminal His6 tag kept, IPTG/heat-shock expression with MnCl2, Ni-NTA purified; Mn(II) in two cupin sites per subunit", "T2 sequence (O34714 whole entry W96F)": "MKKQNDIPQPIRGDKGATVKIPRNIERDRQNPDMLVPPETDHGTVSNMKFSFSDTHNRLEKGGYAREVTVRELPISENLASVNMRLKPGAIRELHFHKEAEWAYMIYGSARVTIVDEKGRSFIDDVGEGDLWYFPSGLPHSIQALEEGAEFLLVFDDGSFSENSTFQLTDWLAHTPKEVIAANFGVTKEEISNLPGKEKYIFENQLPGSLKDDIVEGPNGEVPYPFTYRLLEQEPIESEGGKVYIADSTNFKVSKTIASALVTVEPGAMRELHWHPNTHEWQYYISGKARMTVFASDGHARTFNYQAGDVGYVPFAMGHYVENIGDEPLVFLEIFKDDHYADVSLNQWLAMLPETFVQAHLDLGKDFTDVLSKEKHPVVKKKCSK", "assay": "X-band […] Mims ENDOR", "assay_type": "binding", "details": "labelled compound (13C), 50 mM; citrate pH 5.0, 50% glycerol, 10 mM ascorbate, 5 uM DTPA; 5 K; bidentate to N-terminal active-site Mn(II)"}}, "note": "Structures can show the parent of a compound that is named as a salt.", "data": [{"smiles": "O=C(O)C(=O)O", "note": "[^13C-labeled oxalate]", "values": [{"measurement": "X-band 13C Mims ENDOR", "setting": "[1]", "result": "bidentate binding of oxalate in WT OxDC at high pH where the enzyme is inactive"}, {"measurement": "X-band 13C Mims ENDOR", "setting": "[2]", "result": "Mn(II) ion in the active site of the OxDC mutant W96F at low pH"}]}]}
